What was measured:
[1] = biological target: glucocorticoid receptor (GR) recombinant ligand binding domain (LBD) (Homo sapiens (Human), UniProt P04150); experiment: GR binding fluorescence polarisation (FP) assay; settings: displacement of fluorescently tagged ligand
Method: Binding of test compounds to the glucocorticoid receptor (GR) is determined using a fluorescence polarisation (FP) assay utilising a recombinant ligand binding domain (LBD) of GR. The test compounds are assessed by their ability to displace a fluorescently tagged ligand and detection of the resulting decrease in fluorescence polarisation.

[2] = tested on: induction of TAT by dexamethasone in HepG2 cells; experiment: Hep G2 TAT assay (inhibition of dexamethasone-induced TAT); type: cell-based, human; settings: challenge of 100 nM dexamethasone, IC50 converted to Ki by Cheng and Prusoff equation

Sequence of glucocorticoid receptor (GR) recombinant ligand binding domain (LBD) (P04150 524-758): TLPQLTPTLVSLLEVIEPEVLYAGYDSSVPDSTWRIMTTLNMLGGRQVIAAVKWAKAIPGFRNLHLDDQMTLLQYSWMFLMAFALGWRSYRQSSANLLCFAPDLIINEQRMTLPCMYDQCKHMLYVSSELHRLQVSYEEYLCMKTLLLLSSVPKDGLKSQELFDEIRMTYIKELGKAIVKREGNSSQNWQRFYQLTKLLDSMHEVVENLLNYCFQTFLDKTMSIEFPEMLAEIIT

Row | Structure (SMILES) | IC50 [1] [nM] | Ki [2] [nM]
1 | CC(=O)N1CCC(Cc2ccc(C(F)(F)F)cc2)(c2cc3cnn(-c4ccc(F)cc4)c3cc2C)C1 (centres unmarked) [Example 194, 1-(3-(1-(4-fluorophenyl)-6-methyl-1H-indazol-5-yl)-3-(4-(trifluoromethyl)benzyl)pyrrolidin-1-yl)ethan-1-one] | 109 | 102
2 | Cc1cc2c(cnn2-c2ccc(=O)n(C)c2)cc1C1(Cc2ccccc2)CCN(S(=O)(=O)c2cncc(F)c2)C1 (centres unmarked) [Example 300, 5-(5-(3-benzyl-1-((5-fluoropyridin-3-yl)sulfonyl)pyrrolidin-3-yl)-6-methyl-1H-indazol-1-yl)-1-methylpyridin-2(1H)-one] | 4.6 | 36
3 | [2H]C([2H])([2H])n1cc(-n2ncc3cc(C4(Cc5ccccc5)CCN(S(=O)(=O)c5cnn(C)n5)C4)c(C)cc32)cn1 (centres unmarked) [Example 250, 5-(3-benzyl-1-((2-methyl-2H-1,2,3-triazol-4-yl)sulfonyl)pyrrolidin-3-yl)-6-methyl-1-(1-(methyl-d3)-1H-pyrazol-4-yl)-1H-indazole] | 4.1 | 26
4 | CCCn1cc(S(=O)(=O)N2C3CC2CN(c2cc4cnn(-c5ccc(F)cc5)c4cc2C)C3)cn1 [Example 73] | 151 | 306
5 | Cc1cncc(S(=O)(=O)N2CCC(Cc3ccccc3)(c3cc4cnn(-c5ccc(=O)n(C)c5)c4cc3C)C2)c1 (centres unmarked) [Example 309, 5-(5-(3-benzyl-1-((5-methylpyridin-3-yl)sulfonyl)pyrrolidin-3-yl)-6-methyl-1H-indazol-1-yl)-1-methylpyridin-2(1H)-one] | 11 | 66
6 | Cc1cc2c(cnn2-c2ccc(=O)n(C)c2)cc1C1(Cc2ccccc2)CCN(S(=O)(=O)c2cnn(C)n2)C1 (centres unmarked) [Example 266, 5-(5-(3-benzyl-1-((2-methyl-2H-1,2,3-triazol-4-yl)sulfonyl)pyrrolidin-3-yl)-6-methyl-1H-indazol-1-yl)-1-methylpyridin-2(1H)-one] | 4.7 | 40
7 | Cc1ncc(S(=O)(=O)N2CCC(Cc3ccccc3)(c3cc4cnn(-c5ccc(=O)n(C)c5)c4cc3C)C2)cn1 (centres unmarked) [Example 322, 5-(5-(3-benzyl-1-((2-methylpyrimidin-5-yl)sulfonyl)pyrrolidin-3-yl)-6-methyl-1H-indazol-1-yl)-1-methylpyridin-2(1H)-one] | 24 | 77
8 | COc1cccc(S(=O)(=O)N2CCC(Cc3ccccc3)(c3cc4cnn(-c5ccc(=O)n(C)c5)c4cc3C)C2)c1 (centres unmarked) [Example 310, 5-(5-(3-benzyl-1-((3-methoxyphenyl)sulfonyl)pyrrolidin-3-yl)-6-methyl-1H-indazol-1-yl)-1-methylpyridin-2(1H)-one] | 11 | 66
9 | CCCn1cc(S(=O)(=O)N2CC3CCN(c4cc5cnn(-c6ccc(F)cc6)c5cc4C)C3C2)cn1 (centres unmarked) [Example 91] | 227 | 336
10 | COc1cc2c(cnn2-c2ccc(F)cc2)cc1C1(Cc2ccc(F)cc2)CCN(S(=O)(=O)c2cnn(C)n2)C1 (centres unmarked) [Example 219, 5-(3-(4-fluorobenzyl)-1-((2-methyl-2H-1,2,3-triazol-4-yl)sulfonyl)pyrrolidin-3-yl)-1-(4-fluorophenyl)-6-methoxy-1H-indazole] | 26 | 13
11 | Cc1cc2c(cnn2-c2ccc(F)cc2)cc1C1(Cc2ccccc2)CCN(S(=O)(=O)c2cnn(C)n2)C1 (centres unmarked) [Example 213, 5-(3-benzyl-1-((2-methyl-2H-1,2,3-triazol-4-yl)sulfonyl)pyrrolidin-3-yl)-1-(4-fluorophenyl)-6-methyl-1H-indazole] | 17 | 13
12 | Cc1cc2c(cnn2-c2ccc(F)cc2)cc1N1CCN(S(=O)(=O)c2cnn(CC(F)(F)F)c2)C2(CC2)C1 [Example 67] | 18 | 33
13 | Cc1cc2c(cnn2-c2ccc(F)cc2)cc1N1CCN(S(=O)(=O)c2cnn(CC3CC3)c2)[C@H](C)C1 [Example 43] | 95 | 467
14 | Cc1cc2c(cnn2-c2ccc(=O)n(C)c2)cc1C1(Cc2ccccc2)CCN(S(=O)(=O)c2ccc(F)cc2)C1 (centres unmarked) [Example 298, 5-(5-(3-benzyl-1-((4-fluorophenyl)sulfonyl)pyrrolidin-3-yl)-6-methyl-1H-indazol-1-yl)-1-methylpyridin-2(1H)-one] | 3.6 | 37
15 | Cc1cc2c(cnn2-c2cc(C3CC3)c(=O)n(C)c2)cc1C1(Cc2ccccc2)CCN(S(=O)(=O)c2cnn(C)n2)C1 (centres unmarked) [Example 262, 5-(5-(3-benzyl-1-((2-methyl-2H-1,2,3-triazol-4-yl)sulfonyl)pyrrolidin-3-yl)-6-methyl-1H-indazol-1-yl)-3-cyclopropyl-1-methylpyridin-2(1H)-one] | 280 | 190
16 | CC(=O)N1CCC(Cc2cccc(C(F)(F)F)c2)(c2cc3cnn(-c4ccc(F)cc4)c3cc2C)C1 (centres unmarked) [Example 192, 1-(3-(1-(4-fluorophenyl)-6-methyl-1H-indazol-5-yl)-3-(3-(trifluoromethyl)benzyl)pyrrolidin-1-yl)ethan-1-one] | 14 | 72
17 | CCCn1cc(S(=O)(=O)N2CCN(c3cc4cnn(-c5ccc(F)cc5)c4cc3C)CC23CC3)cn1 [Example 60] | 8 | 39

Row | Structure (SMILES) | IC50 [1] [nM] | Ki [2] [nM]
18 | Cc1cc2c(cnn2-c2ccc(F)cc2)cc1C1(Cc2ccccc2)CCN(C(=O)c2ccccc2)C1 (centres unmarked) [Example 193, (3-benzyl-3-(1-(4-fluorophenyl)-6-methyl-1H-indazol-5-yl)pyrrolidin-1-yl)(phenyl)methanone] | 28 | 25
19 | CCCn1cc(S(=O)(=O)N2CC[C@@](Cc3ccccc3)(c3cc4cnn(-c5ccc(F)cc5)c4cc3C)C2)cn1 [Example 17, (S)-5-(3-benzyl-1-((1-propyl-1H-pyrazol-4-yl)sulfonyl)pyrrolidin-3-yl)-1-(4-fluorophenyl)-6-methyl-1H-indazole] | 52 | 23
20 | Cc1cc2c(cnn2-c2ccc(=O)n(C)c2)cc1C1(Cc2ccccc2)CCN(S(=O)(=O)c2cn(C)nn2)C1 (centres unmarked) [Example 275, 5-(5-(3-benzyl-1-((1-methyl-1H-1,2,3-triazol-4-yl)sulfonyl)pyrrolidin-3-yl)-6-methyl-1H-indazol-1-yl)-1-methylpyridin-2(1H)-one] | 18 | 70
21 | Cc1cc2c(cnn2-c2ccc(=O)n(C)c2)cc1C1(Cc2ccccc2)CCN(S(=O)(=O)c2cccc(F)c2F)C1 (centres unmarked) [Example 317, 5-(5-(3-benzyl-1-((2,3-difluorophenyl)sulfonyl)pyrrolidin-3-yl)-6-methyl-1H-indazol-1-yl)-1-methylpyridin-2(1H)-one] | 8.9 | 23
22 | Cc1cc2c(cnn2-c2ccc(F)cc2)cc1C1(Cc2ccc(C(F)(F)F)nc2)CCN(S(=O)(=O)c2cnn(C)c2)C1 (centres unmarked) [Example 170] | 123 | 104
23 | CCCn1cc(S(=O)(=O)N2CCC(Cc3nccs3)(c3cc4cnn(-c5ccc(F)cc5)c4cc3C)C2)cn1 (centres unmarked) [Example 189] | 11 | 91
24 | CS(=O)(=O)N1CC=C(c2cc3cnn(-c4ccc(F)cc4)c3cc2Cl)CC1 [Example 142] | 429 | 715
25 | Cc1cc2c(cnn2-c2ccc(=O)n(C)c2)cc1C1(Cc2ccc(F)cc2)CCN(S(=O)(=O)c2cnn(C)n2)C1 (centres unmarked) [Example 324, 5-(5-(3-(4-fluorobenzyl)-1-((2-methyl-2H-1,2,3-triazol-4-yl)sulfonyl)pyrrolidin-3-yl)-6-methyl-1H-indazol-1-yl)-1-methylpyridin-2(1H)-one] | 7.5 | 64
26 | Cc1cc2c(cnn2-c2ccc(=O)n(C)c2)cc1C1(Cc2ccccc2)CCN(S(=O)(=O)c2ccc(C#N)cc2)C1 (centres unmarked) [Example 308, 4-((3-benzyl-3-(6-methyl-1-(1-methyl-6-oxo-1,6-dihydropyridin-3-yl)-1H-indazol-5-yl)pyrrolidin-1-yl)sulfonyl)benzonitrile] | 14 | 62
27 | Cc1cc2c(cnn2-c2ccc(=O)n(C)c2)cc1C1(C(C)c2ccccc2)CCN(S(=O)(=O)c2cnn(C)n2)C1 (centres unmarked) [Example 274, 1-methyl-5-(6-methyl-5-(1-((2-methyl-2H-1,2,3-triazol-4-yl)sulfonyl)-3-(1-phenylethyl)pyrrolidin-3-yl)-1H-indazol-1-yl)pyridin-2(1H)-one] | 81 | 290
28 | CCCn1cc(S(=O)(=O)N2CCN(c3cc4cnn(-c5ccc(F)cc5)c4cc3C)C(c3ccccc3)C2)cn1 (centres unmarked) [Example 86] | 162 | 864
29 | CCCn1cc(S(=O)(=O)N2CCN(c3cc4cnn(-c5cccc(C(=O)NC6CCOC6)c5)c4cc3C)CC23CC3)cn1 (centres unmarked) [Example 84] | 10 | 103
30 | C[C@@H]1CN(c2ccc3c(cnn3-c3ccc(F)cc3)c2)CCN1S(=O)(=O)c1cnn(CC2CC2)c1 [Example 39] | 81 | 242
31 | Cc1cc2c(cnn2-c2ccc(F)cc2)cc1N1CCC2CN(S(C)(=O)=O)CC21 (centres unmarked) [Example 90] | 45 | 343
32 | CCCn1cc(S(=O)(=O)N2CC=C(c3cc4cnn(-c5ccc(F)cc5)c4cc3Cl)CC2)cn1 [Example 143] | 384 | 32
33 | Cc1cc2c(cnn2-c2ccc(F)cc2)cc1C1(Cc2ccccc2)CCN(S(=O)(=O)c2ccn(C)n2)C1 (centres unmarked) [Example 215, 5-(3-benzyl-1-((1-methyl-1H-pyrazol-3-yl)sulfonyl)pyrrolidin-3-yl)-1-(4-fluorophenyl)-6-methyl-1H-indazole] | 10 | 10
34 | COc1cc2c(cnn2-c2ccc(F)cc2)cc1C1(Cc2ccccc2)CCN(S(=O)(=O)c2cnn(C)n2)C1 (centres unmarked) [Example 218, 5-(3-benzyl-1-((2-methyl-2H-1,2,3-triazol-4-yl)sulfonyl)pyrrolidin-3-yl)-1-(4-fluorophenyl)-6-methoxy-1H-indazole] | 14 | 10

Source: US11787780B2 (CORCEPT THERAPEUTICS INCORPORATED, priority 2020, dated 2023)
